Series [1] relates to paw swelling induced by carrageenin. In words: Paw swelling induced by carrageenin in rat. Type of series: in vivo, SD rats. Particulars: 0.25 g/kg p.o. 3 days. On the procedure: A total of 50 SD rats weighing 100-120g with equal sex distribution were randomly divided into 5 groups. The rats were treated p.o. with different doses of AHT-323, tragacanth, or aspirin once daily for 3 days. One hour later, rats were given subcutaneously injections with 0.05 ml of carrageenin (1%) in the right paw of each rat. The degree of paw swelling was measured using the drainage method before and 1, 3, 4, 5, and 6 h after injection of the carrageenin.

Series [2] has as its system adjuvant arthritis (AA) rats. In words: Therapeutic effect on adjuvant arthritis rats (swelling). Type of series: in vivo, SD rats. To be noted: 0.01 g/kg. On the procedure: (§1) In the study, 60 male SD rats weighing 180-220 g were used and randomly divided into 5 groups, including three test groups, one negative and one positive control groups. The rats were given p.o. three different dosages of AHT-323, tragacanth, or prednisone, respectively, once daily for 4 consecutive weeks. 0.1 ml of Freund's Complete Adjuvant (FCA) was also injected intradermally into the plantar of left hind paw of rats […]. Each day, the maximal circumference of both left and right paw and ankle joint were measured, and the swelling degrees (mm) were calculated to determine the AHT-323 on both primary and secondary injury. The primary injury occurs at the homolateral joints of the adjuvant injection and is resulted from direct, non-specific inflammatory reaction of the body to adjuvant. Whereas the secondary injury occurs at the contralateral joints of the adjuvant injection in about two weeks after adjuvant injection and is related to auto-immune responses induced by adjuvant injection. The pathological changes of human rheumatoid arthritis is similar to that of the secondary injury in AA rats.
Totals of 50 male SD rats were divided into 5 groups with the same treatment as experiments described in section 3.3.1 except that the AHT-323 was given p.o. from d13˜d28 once daily for 2 weeks, (from the thirteenth day after injection of Freund's Complete Adjuvant).

Series [3] concerns adjuvant arthritis (AA) rats. In words: Prophylactic effect on rat adjuvant arthritis (paw and ankle swelling). Type of series: in vivo, SD rats. Particulars: 0.01 g/kg p.o. On the procedure: The study was conducted in adjuvant arthritis (AA) rats, an experimental model for human rheumatoid arthritis.
as §1

The next series relates to T cells of AA mice. In words: T cells of AA mice (esterase stain, flow cytometry). Type of series: in vivo, NIH mice. To be noted: 0.012 g/kg. On the procedure: A total of 60 NIH mice weighing 20±2 g were randomly divided into 6 groups, among which four groups were injected intradermially with 0.05 ml FCA to induce AA model mice. The negative control group was injected intradermially with 0.05ml saline. The rats in AHT-323 test groups were administrated orally with AHT-323 once daily for consecutive five days. Five days later, peripheral blood was drawn from mice in all groups and stained with esterase. The percent of T cells (positive esterase stained cells) was calculated.
The above mice were anesthetized and spleens were removed and made into splenocytes suspension. CD4^+ T cells and CD8^+ T cells were assayed with flow cytometry and CD4^+/CD8^+ was calculated.
For orientation: A flow cytometer gives signals particle by particle.

The test system of the next series is cotton granuloma. Nature of the series: Cotton granuloma and organ weights. Type of series: in vivo, SD rats. Particulars: 0.05 g/kg p.o. once daily 7 days. On the procedure: 150 SD rats weighing 150-180 g with equal sex distribution were randomly divided into 15 groups. After light anesthesia with ether, an aseptic cotton ball (10 mg) was implanted into each armpit. On that day, rats were administered p.o. with different doses of AHT-323 or DXM once daily for 7 days. Twenty four hours after the last drug administration, the rats were sacrificed and the cotton balled granuloma were removed. The wet and dry weight of the granuloma, and other organs were obtained.

The subject of another series is WBC of pleura. In words: Migration of inflammatory cells of pleura (Fucus siliquosus glue). Type of series: in vivo, NIH mice. To be noted: 0.05 g/kg. On the procedure: A total of 50 NIH mice were randomly divided into five groups. 0.5% Evans blue saline was injected into caudal vein at 0.1 ml/10 g body weight. Then mice were lightly anesthetized with ether and injected with 0.03 ml of Fucus siliquosus glue into right thoracic cavity to induce inflammation. 4 h and 32 h after inflammation induction, the mice were sacrificed and 2 ml of thoracic cavity wash liquid was collected and used to count the WBC and measure the optical density (OD) at 600 nm. […] The regression equation on 4 h was y=44.13-2.01x, r=0.9625.

The test system of series [4] is ear swelling induced by croton oil. Nature of the series: Ear swelling induced by croton oil. Type of series: in vivo, NIH mice. Particulars: 0.003 g/kg p.o. once daily 3 days. On the procedure:
A total of 60 NIH mice weighing 18-22 g with equal sex distribution were randomly divided into 6 groups. The mice were treated p.o. with different doses of AHT-323, tragacanth, or DXM once daily for 3 days. One hour after the last administration, 0.02 ml croton oil (2%) was pasted around the left auricle. Four hours later, mice were sacrificed by dislocating cervical vertebrae. The right and left ears were cut off and weighed to get the differences in the degree of ear swelling.

The test system of a further series is peritoneal macrophage. Nature of the series: CRBC phagocytosis of peritoneal macrophage of mice. Type of series: in vivo. To be noted: 0.005 g/kg p.o. once daily 7 days. On the procedure:
Totals of 50 NIH mice weighing 18-22 g with equal sex distribution were randomly divided into 5 groups. The mice were treated p.o. with different doses of AHT-323 or other positive control drug once daily for 7 days. 1 h after the last dose, mice were injected i.p. with 0.2 ml […] of chick (10%). 4 h later, mice were sacrificed and the peritoneal fluid was obtained. Under microscope, the amount of macrophage that phagocytosed CRBC and the amount of CRBC phagocytosed by each macrophage were counted.

On to `CC(=O)Oc1ccccc1C(=O)O` [Aspirin, aspirin], for which the “Paw swelling rate (%)” value in series [1] (1 h) is reported as 6.3 ± 4.1 %; in series [1] (3 h) it was 11.1 ± 6.3 %; in series [1] (4 h), 17.9 ± 7.6 %; in series [1] (5 h) it was 18.1 ± 7.0 %; in series [1] (6 h) it was 20.6 ± 6.0 %.
For `C[C@]12C=CC(=O)C=C1CC[C@@H]1[C@@H]2C(=O)C[C@@]2(C)[C@H]1CC[C@]2(O)C(=O)CO` [Prednisone, prednisone], the Swelling degree is given as 1.78 ± 0.51 cm in series [2] (primary injury, therapeutic (p.o. d13˜d28), D1); 1.70 ± 0.51 cm in series [2] (primary injury, therapeutic (p.o. d13˜d28), d2); 1.63 ± 0.50 cm in series [2] (primary injury, therapeutic (p.o. d13˜d28), d4); 1.58 ± 0.50 cm in series [2] (primary injury, therapeutic (p.o. d13˜d28), d6); 1.27 ± 0.46 cm in series [2] (primary injury, therapeutic, 2nd block col 1 (day not given)); 1.09 ± 0.54 cm in series [2] (primary injury, therapeutic, 2nd block col 2 (day not given)). The Swelling degree stood at 0.94 ± 0.50 cm in series [2] (primary injury, therapeutic, 2nd block col 3 (day not given)); 0.94 ± 0.42 cm in series [2] (primary injury, therapeutic, 2nd block col 4 (day not given)); 1.08 ± 00.41 cm in series [2] (secondary injury, therapeutic (p.o. d13˜d28), D1); 1.18 ± 00.44 cm in series [2] (secondary injury, therapeutic (p.o. d13˜d28), d2); 1.23 ± 00.42 cm in series [2] (secondary injury, therapeutic (p.o. d13˜d28), d4); 1.19 ± 00.38 cm in series [2] (secondary injury, therapeutic (p.o. d13˜d28), d6). Also, the Swelling degree in series [2] (secondary injury, therapeutic, 2nd block col 1 (day not given)) is on record as 0.88 ± 00.47 cm; in series [2] (secondary injury, therapeutic, 2nd block col 2 (day not given)), 0.95 ± 00.43 cm; in series [2] (secondary injury, therapeutic, 2nd block col 3 (day not given)), 0.82 ± 00.48 cm; in series [2] (secondary injury, therapeutic, 2nd block col 4 (day not given)), 0.75 ± 00.37 cm; in series [3] (primary injury, 2nd block col 1 (day not given)) it was 1.18 ± 0.76 cm; in series [3] (primary injury, 2nd block col 2 (day not given)), 1.03 ± 0.67 cm. In addition, the Swelling degree in series [3] (primary injury, 2nd block col 3 (day not given)) was found to be 1.05 ± 0.69 cm; in series [3] (primary injury, 2nd block col 4 (day not given)), 0.90 ± 0.64 cm; in series [3] (primary injury, 2nd block col 5 (day not given)) it was 0.86 ± 0.65 cm; in series [3] (primary injury, 2nd block col 6 (day not given)), 0.85 ± 0.59 cm; in series [3] (primary injury, d1) it was 0.64 ± 0.14 cm; in series [3] (primary injury, d2) it was 0.64 ± 0.16 cm. Moreover, the Swelling degree in series [3] (primary injury, d3) was determined as 0.50 ± 0.26 cm; in series [3] (primary injury, d9), 0.46 ± 0.25 cm; in series [3] (primary injury, d12), 0.72 ± 0.46 cm; in series [3] (primary injury, d14), 0.87 ± 0.46 cm; in series [3] (primary injury, d16), 1.28 ± 0.69 cm; in series [3] (secondary injury, 2nd block col 1 (day not given)), 0.78 ± 0.70 cm. The Swelling degree in series [3] (secondary injury, 2nd block col 2 (day not given)) is 0.72 ± 0.71 cm; in series [3] (secondary injury, 2nd block col 3 (day not given)), 0.67 ± 0.64 cm; in series [3] (secondary injury, 2nd block col 4 (day not given)) it was 0.62 ± 0.61 cm; in series [3] (secondary injury, 2nd block col 5 (day not given)) it was 0.65 ± 0.64 cm; in series [3] (secondary injury, D9) it was 0.038 ± 0.048 cm; in series [3] (secondary injury, d2) it was 0.016 ± 0.039 cm. The Swelling degree in series [3] (secondary injury, d12) was found to be 0.14 ± 0.14 cm; in series [3] (secondary injury, d14) it was 0.38 ± 0.39 cm; in series [3] (secondary injury, d16), 0.92 ± 0.62 cm; in series [3] (secondary injury, d18), 0.78 ± 0.71 cm.
Take `CC(=O)OC[C@]12[C@H](OC(C)=O)[C@H](OC(C)=O)[C@@H]3[C@@H](OC(C)=O)[C@@]14O[C@@]3(C)COC(=O)c1cccnc1CCC(C)(O)C(=O)O[C@@H]([C@H](OC(=O)c1ccccc1)[C@@H]2OC(C)=O)[C@]4(C)O` (stereo partly shown) [Wilfordine]: the “CD4^+/CD8^+” value in the series on T cells of AA mice is 1.70 ± 0.03. Moreover, in the series with T cells of AA mice (peripheral blood), the “ANAE^+ (%)” value was found to be 48.88 ± 2.89%. Further, in the series on T cells of AA mice (splenocytes), the “CD4^+ (%)” value is on record as 27.88 ± 1.99 % and the “CD8^+ (%)” value is on record as 16.33 ± 1.31 %.
In the case of `C[C@@H]1C[C@H]2[C@@H]3CCC4=CC(=O)C=C[C@]4(C)[C@@]3(F)[C@@H](O)C[C@]2(C)[C@@]1(O)C(=O)CO` [DXM, dexamethasone], in the series on cotton granuloma, the “Granuloma Wt. Dry Wt.” value stood at 77 ± 17 mg/100 g, the “Granuloma Wt. Wet Wt.” value is on record as 346 ± 92 mg/100 g, the “Weight of organs: Adrenal” value came to 17 ± 5 mg/100 g and the “Weight of organs: Spleen” value came to 412 ± 173 mg/100 g. Besides, in the series with cotton granuloma, the “Weight of organs: Thymus” value is reported as 38 ± 13 mg/100 g and the “Weight of organs: uterus” value is given as 126 ± 33 mg/100 g. In addition, the WBC count in the series on WBC of pleura (4 h after inflammation induction) is recorded as 12.7 ± 10.2. The WBC count with WBC of pleura (32 h) was 4.4 ± 4.0. For the same compound, the “Swelling degree” value in series [4] is 14.13 ± 5.75 mg. Moreover, the inhibition at 3 mg/kg in series [4] (Mus musculus, po, 72 h, read-out: Inhibition rate) turned out to be 68.2%. In the series on peritoneal macrophage, the Phagocytic index is 1.10 ± 0.18 and the “Phagocytic percent (%)” value stood at 8.33 ± 10.13 %.

As a reminder, the inhibition is the drop in the measured response relative to a control, in per cent.

Source of the values: patent US20030008024A1, “Therapeutic composition of herbal extracts and the uses thereof” (Advanced Herbal Therapeutics, Inc., priority 2001, published 2003).
